Source: article PMC3832641, “Inhibition of Leishmania (Leishmania) amazonensis and Rat Arginases by Green Tea EGCG, (+)-Catechin and (−)-Epicatechin: A Comparative Structural Analysis of Enzyme-Inhibitor Interactions” (PLoS ONE, 2013)

Tests used:
[1] = system: L. (L.) donovani amastigotes; set-up: method as in PMID 16569852; settings: cited from earlier work
[2] = biological target: T1, rat liver arginase (ARG-1) (Rattus norvegicus, UniProt P07824); assay: Inhibition of rat liver arginase (ARG-1); format: biochemical; settings: for Inhibition of ARG-1: inhibitors at 10 µM or 100 µM; for inhibition at 1000 µM: inhibitors at 1000 µM
T1 construct: Rat liver arginase (ARG-1) was prepared by lysing 5 g of liver cells; from tissue; host or cells: rat liver
T1 sequence (P07824 1-323): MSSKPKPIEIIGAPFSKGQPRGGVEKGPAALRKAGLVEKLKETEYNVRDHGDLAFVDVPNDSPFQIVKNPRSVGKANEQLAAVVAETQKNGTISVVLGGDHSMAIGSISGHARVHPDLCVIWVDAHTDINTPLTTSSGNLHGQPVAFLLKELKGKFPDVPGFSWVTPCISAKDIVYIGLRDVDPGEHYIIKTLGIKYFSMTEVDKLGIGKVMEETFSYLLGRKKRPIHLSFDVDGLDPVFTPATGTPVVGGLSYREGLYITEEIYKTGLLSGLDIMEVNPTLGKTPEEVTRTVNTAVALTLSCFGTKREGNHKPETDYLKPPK

[3] = biological target: T2, recombinant arginase from Leishmania amazonensis (ARG-L) (Leishmania amazonensis, UniProt O96394); assay: ARG-L enzyme kinetics: Ki, Ki' and mechanism of inhibition (Dixon and Cornish-Bowden plots); format: biochemical; settings: for Ki': Cornish-Bowden plot, dissociation constant of enzyme-inhibitor-substrate complex; for Ki' / Ki: mean ± SEM; for Mode of inhibition: Dixon and Cornish-Bowden plots; for Ki: Dixon plot, dissociation constant of enzyme-inhibitor complex
Description: All reactions were performed in CHES buffer, 50 mM, pH 9.5, containing various concentrations of the substrate L-[…].5, 25, 50 and 100 mM) at pH 9.5. Inhibitors were used at three different concentrations similar to the IC50. The different substrate and inhibitor concentrations were obtained by serial dilution. A mixture, M1, containing L-arginine (pH 9.5) at double the desired concentration and a second mixture, M2, containing the enzyme (2000 units) diluted in 125 mM CHES buffer (pH 9.5) were prepared. The reaction mixture was obtained by homogenizing 50 μL of M1, 10 μL of inhibitor and adding 40 μL of M2. The addition of M2 was synchronized every 15 seconds, followed by immediate incubation in a water bath for 15 minutes at 37°C. The urea produced was analyzed as described above. […] Each constant was determined by calculating X values at the intersection points between two lines obtained by linear regression. […] Ki and Ki' is a positive value of the calculated X (Ki = -X). For three different values of S, three lines were drawn for 1/v against i (Dixon plot) and three lines for S/v against i (Cornish-Bowden plot). In the Dixon plot, the lines intersect at a point where i = -Ki and 1/v = [1- (Ki/Ki')]/Vmax; in the Cornish-Bowden plot, they intersect at a point where i = -Ki' and S/v = KM[1- (Ki'/Ki)]/Vmax. To make wizard Ki and Ki' calculations, linear data fitting was performed using Microsoft Office Excel v.2013. The linear equations were obtained by linear regression R^2>0.85. Linear regression retrieved the linear equation y(n) = […]), which calculates the reciprocal of the ratio of reaction 1/v (y(n)) as a function of variable inhibitor concentration (x(n)). The term b(n) is the reciprocal of the maximum ratio of reaction (1/Vmax) obtained at a fixed S concentration and variable i concentration. The Dixon and Cornish-Bowden plots were constructed using a mean of each point obtained from three independent experiments performed in duplicate. Three interception points were obtained by the combination of two linear equations for each time point. Then, Ki and Ki' were calculated using equation (7) and were expressed as mean values ± SEM (standard error of the mean).

[4] = biological target: T2, recombinant arginase from Leishmania amazonensis (ARG-L); assay: biochemical
L. (L.) amazonensis = system: L. (L.) amazonensis; set-up: method as in PMID 22735546; settings: cited from earlier work

SMILES	Leishmanicidal activity / effect on growth of the parasite [1]	Inhibition of ARG-1 [2]	inhibition at 1000 µM [2] [%]	Ki' [3] [µM]	Mode of inhibition [3]	Mode of inhibition ([3]; listed as gallic acid)	Ki [3] [µM]	IC50 [4] [µM]	Effect on parasite mitochondria (L. (L.) amazonensis)
Oc1cc(O)c2c(c1)O[C@H](c1ccc(O)c(O)c1)[C@@H](O)C2 [(+)-catechin]	little effect on the growth of the parasite	did not significantly inhibit	26						
Oc1cc(O)c2c(c1)O[C@H](c1ccc(O)c(O)c1)[C@H](O)C2 [(−)-epicatechin]	little effect on the growth of the parasite	did not significantly inhibit	22						
O=C(O)c1cc(O)c(O)c(O)c1 [Gallic acid]		did not significantly inhibit	20	7.2 ± 1.4	Noncompetitive	noncompetitive inhibitor	7.2 ± 1.4	2.2 ± 0.2	
O=C(OC1Cc2c(O)cc(O)cc2OC1c1cc(O)c(O)c(O)c1)c1cc(O)c(O)c(O)c1 (single isomer, unassigned; (-)) [EGCG, (−)-Epigallocatechin-3-gallate]	shows leishmanicidal activity	did not significantly inhibit	29	12.5 ± 0.4	mixed inhibitor		4 ± 0.5	3.8 ± 0.1	damages mitochondria, contributing to the death of the parasite
